In brackets after ≈: the same amount, converted by molar mass. Activity calls are given as the source filed them. The calls are words filed in the database; no cut-off is given here.
Tests used:
MCF7 [1] = test: Anticancer activity against human MCF7 cells assessed as inhibition of cell growth at 4.4 uM preincubated with SR144528 for 1 hrs followed by compound addition and measured after 48 hrs by SRB assay relative to control; assay type: functional
MCF7 [2] = test: Induction of apoptosis in human MCF7 cells assessed as early apoptotic cells at 4.4 uM incubated for 24 hrs by Annexin V-FITC/PI staining based flow cytometric analysis (reference value: 2.93 %); assay type: functional
MCF7 [3] = test: Induction of apoptosis in human MCF7 cells assessed as viable cells at 4.4 uM incubated for 24 hrs by Annexin V-FITC/PI staining based flow cytometric analysis (reference value: 88.20 %); assay type: functional; conditions: read-out: Activity
MCF7 [4] = test: Cytotoxicity against human MCF7 cells assessed as inhibition of cell growth incubated for 48 hrs by SRB assay; assay type: functional, cell-based; conditions: MCF7, 48 h
MCF7 [5] = test: Anticancer activity against human MCF7 cells assessed as reduction in cell viability at 4.4 uM incubated for 48 hrs by SRB assay relative to control; assay type: functional
[6] = Permeability of compound at 100 uM incubated for 16 hrs by PAMPA-BBB assay; assay type: ADME
MCF7 [7] = test: Cytotoxicity against human MCF7 cells assessed as inhibition of cell growth at 20 uM incubated for 48 hrs by SRB assay relative to control; assay type: functional
[8] = Metabolic stability in human liver microsomes assessed as intrinsic clearance at 5 uM measured upto 30 mins per mg protein in presence of NADPH by LC-MS/MS analysis; assay type: ADME, Microsome; conditions: read-out: CLH
MCF7 [9] = test: Cell cycle arrest in human MCF7 cells assessed as accumulation of cells at G2/M phase at 4.4 uM incubated for 24 hrs by PI staining based flow cytometric analysis (reference value: 13.7 %); assay type: functional
[10] = Metabolic stability in human liver assessed as intrinsic clearance at 5 uM measured upto 30 mins in presence of NADPH by LC-MS/MS analysis; assay type: ADME, tissue-based; conditions: read-out: CLH
HCT-116 [11] = test: Cytotoxicity against human HCT-116 cells assessed as inhibition of cell growth incubated for 48 hrs by SRB assay; assay type: functional, cell-based; conditions: HCT-116, 48 h
Cytochrome P450 1A2 = Cytochrome P450 1A2 (Homo sapiens, UniProt P05177); test: Inhibition of CYP1A2 in human liver microsomes using […] substrate at 1 to 10 uM in presence of NADPH by LC-MS/MS analysis; assay type: ADME, Microsome; conditions: dose 1-10 µM
Cytochrome P450 1A2, sequence (P05177 whole entry): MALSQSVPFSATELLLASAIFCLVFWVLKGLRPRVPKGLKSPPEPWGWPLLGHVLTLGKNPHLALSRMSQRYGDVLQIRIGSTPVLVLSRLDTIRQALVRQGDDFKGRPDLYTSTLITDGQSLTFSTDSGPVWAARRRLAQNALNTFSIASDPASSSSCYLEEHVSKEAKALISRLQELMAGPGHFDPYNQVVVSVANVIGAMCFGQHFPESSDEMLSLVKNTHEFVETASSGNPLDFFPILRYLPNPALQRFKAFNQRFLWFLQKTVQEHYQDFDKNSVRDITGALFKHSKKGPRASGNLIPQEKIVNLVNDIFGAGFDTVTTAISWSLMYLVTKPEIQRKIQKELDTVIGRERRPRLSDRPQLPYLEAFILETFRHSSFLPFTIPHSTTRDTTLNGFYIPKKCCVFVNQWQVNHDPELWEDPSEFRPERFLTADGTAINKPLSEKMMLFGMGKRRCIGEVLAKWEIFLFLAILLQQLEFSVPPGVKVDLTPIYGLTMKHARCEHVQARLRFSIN

Cytochrome P450 2C19 = Cytochrome P450 2C19 (Homo sapiens, UniProt P33261); test: Inhibition of CYP2C19 in human liver microsomes using S-mephenytoin substrate at 1 to 10 uM in presence of NADPH by LC-MS/MS analysis; assay type: ADME, Microsome; conditions: dose 1-10 µM
Cytochrome P450 2C19, sequence (P33261 whole entry): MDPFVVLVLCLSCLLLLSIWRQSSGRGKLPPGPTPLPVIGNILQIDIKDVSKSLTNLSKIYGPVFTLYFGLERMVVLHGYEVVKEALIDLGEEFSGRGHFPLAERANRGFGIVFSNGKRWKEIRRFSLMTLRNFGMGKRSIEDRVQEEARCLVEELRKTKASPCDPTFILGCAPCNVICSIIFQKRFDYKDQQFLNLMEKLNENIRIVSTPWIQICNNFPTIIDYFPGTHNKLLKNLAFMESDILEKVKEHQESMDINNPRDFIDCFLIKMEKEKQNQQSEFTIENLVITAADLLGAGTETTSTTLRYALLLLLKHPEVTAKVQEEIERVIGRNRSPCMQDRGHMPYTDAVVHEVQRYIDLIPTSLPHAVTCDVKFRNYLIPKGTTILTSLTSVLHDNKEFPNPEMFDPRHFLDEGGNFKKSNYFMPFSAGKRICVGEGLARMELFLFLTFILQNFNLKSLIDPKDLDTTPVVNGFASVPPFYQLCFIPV

[12] = Metabolic stability in mouse liver microsomes assessed as intrinsic clearance at 5 uM measured upto 30 mins per mg protein in presence of NADPH by LC-MS/MS analysis; assay type: ADME, Microsome; conditions: read-out: CLH
[13] = Solubility of compound in SIF by UV absorbance based analysis; assay type: physicochemical
MCF7 [14] = test: Cell cycle arrest in human MCF7 cells assessed as accumulation of cells at S phase at 4.4 uM incubated for 24 hrs by PI staining based flow cytometric analysis (reference value: 22.93 %); assay type: functional
[15] = Solubility of compound in water by UV absorbance based analysis; assay type: physicochemical
MCF7 [16] = test: Anticancer activity against human MCF7 cells assessed as inhibition of cell growth at 4.4 uM preincubated with GW9662 for 1 hrs followed by compound addition and measured after 48 hrs by SRB assay; assay type: functional, cell-based
MCF7 [17] = test: Anticancer activity against human MCF7 cells assessed as inhibition of cell growth at 4.4 uM preincubated with ML-193 for 1 hrs followed by compound addition and measured after 48 hrs by SRB assay; assay type: functional, cell-based
[18] = Selectivity index, ratio of IC50 for HEK293 cells to IC50 for human HCT-116 cells; assay type: toxicity; conditions: HEK293 cells versus HCT-116 cells, read-out: Ratio IC50
HCT-116 [19] = test: Cytotoxicity against human HCT-116 cells assessed as inhibition of cell growth at 20 uM incubated for 48 hrs by SRB assay relative to control; assay type: functional
[20] = Metabolic stability in human liver microsomes assessed as hepatic extraction ratio at 5 uM measured upto 30 mins in presence of NADPH by LC-MS/MS analysis; assay type: ADME, Microsome; conditions: read-out: ERH
[21] = Metabolic stability in mouse liver assessed as intrinsic clearance at 5 uM measured upto 30 mins in presence of NADPH by LC-MS/MS analysis; assay type: ADME, tissue-based; conditions: read-out: CLH
MCF7 [22] = test: Inhibition of colony formation in human MCF7 cells assessed as reduction in number of colonies at subtoxic doses measured after 48 hrs by crystal violet staining based analysis; assay type: functional, cell-based
[23] = Metabolic stability in mouse liver microsomes assessed as half-life at 5 uM measured upto 30 mins in presence of NADPH by LC-MS/MS analysis; assay type: ADME, Microsome
MCF7 [24] = test: Induction of apoptosis in human MCF7 cells assessed as necrotic cells at 4.4 uM incubated for 24 hrs by Annexin V-FITC/PI staining based flow cytometric analysis (reference value: 4.02 %); assay type: functional
MCF7 [25] = test: Induction of apoptosis in human MCF7 cells assessed as late apoptotic cells at 4.4 uM incubated for 24 hrs by Annexin V-FITC/PI staining based flow cytometric analysis (reference value: 4.85 %); assay type: functional
MCF7 [26] = test: Cell cycle arrest in human MCF7 cells assessed as accumulation of cells at G1 phase at 4.4 uM incubated for 24 hrs by PI staining based flow cytometric analysis (reference value: 63.9 %); assay type: functional
[27] = Metabolic stability in mouse liver microsomes assessed as hepatic extraction ratio at 5 uM measured upto 30 mins in presence of NADPH by LC-MS/MS analysis; assay type: ADME, Microsome; conditions: read-out: ERH
[28] = Metabolic stability in human liver microsomes assessed as half-life at 5 uM measured upto 30 mins in presence of NADPH by LC-MS/MS analysis; assay type: ADME, Microsome
MCF7 [29] = test: Induction of mitochondrial membrane loss in human MCF7 cells assessed as fold change at 4.4 uM incubated for 24 hrs by Mitotracker dye based flow cytometric analysis relative to control; assay type: functional
MCF7 [30] = test: Induction of ROS production in human MCF7 cells assessed as DCFDA intensity at 4.4 uM incubated for 24 hrs by flow cytometric analysis (reference value: 0.95 %); assay type: functional
MCF7 [31] = test: Anticancer activity against human MCF7 cells assessed as inhibition of cell growth at 4.4 uM preincubated with LY320135 for 1 hrs followed by compound addition and measured after 48 hrs by SRB assay; assay type: functional, cell-based
[32] = Selectivity index, ratio of IC50 for HEK293 cells to IC50 for human MCF7 cells; assay type: toxicity; conditions: HEK293 cells versus MCF7 cells, read-out: Ratio IC50
[33] = Solubility of compound in SGF by UV absorbance based analysis; assay type: physicochemical
MCF7 [34] = test: Anticancer activity against human MCF7 cells assessed as inhibition of cell growth at 4.4 uM preincubated with capsazepine for 1 hrs followed by compound addition and measured after 48 hrs by SRB assay; assay type: functional, cell-based
[35] = Cytotoxicity against human HEK293 cells assessed as inhibition of cell growth incubated for 48 hrs by SRB assay; assay type: toxicity, cell-based

In the case of `C=C(C)[C@@H]1CCC(C)=C[C@H]1c1c(O)cc(CCCCC)c2c1OCN(C1CCC1)C2`, the inhibition at 4.4 µM (MCF7 [1]) is reported as ~17%, the Activity (MCF7 [2]) is reported as 7.61% and the viability at 4.4 µM (MCF7 [3]) is reported as 67.8%. The IC50 (MCF7 [4]) was 4.4 µM, the Activity (MCF7 [5]) was 48.65% and the permeability [6] was “Impermeable”. The inhibition at 20 µM (MCF7 [7]) was 84.9%, the microsomal CLint at 5 µM [8] was 77 µL/min/mg and the Activity (MCF7 [9]) was 10.42%. For the same compound, the CLint scaled at 5 µM [10] was 5.4 L/h/kg, the IC50 (HCT-116 [11]) was 8.6 µM and the “inhibition (INH)” value (Cytochrome P450 1A2) was “Active”. The “inhibition (INH)” value (Cytochrome P450 2C19) was “Active”, the microsomal CLint at 5 µM [12] was 146 µL/min/mg and the solubility [13] was > 1.5 mg/mL. The Activity (MCF7 [14]) was 15.74%, the solubility [15] was 0.04 mg/mL (≈ 97.7 µM) and the Activity (MCF7 [16]) was “Active”. For the same compound, the Activity (MCF7 [17]) was “Active”, the selectivity ratio [18] was 3.2 and the inhibition at 20 µM (HCT-116 [19]) was 63.4%. For the same compound, the hepatic extraction ratio at 0.5 h, 5 µM [20] was 0.81, the CLint scaled at 5 µM [21] was 34.8 L/h/kg and the inhibition (MCF7 [22]) was “Active”. The half-life at 5 µM [23] was 10 min, the Activity (MCF7 [24]) was 6.2% and the Activity (MCF7 [25]) was 18.39%. For the same compound, the Activity (MCF7 [26]) was 73.84%, the hepatic extraction ratio at 0.5 h, 5 µM [27] was 0.87 and the half-life at 5 µM [28] was 18 min. The “fold change (FC)” value (MCF7 [29]) was 5, the Activity (MCF7 [30]) was 17.87% and the Activity (MCF7 [31]) was “Active”. The selectivity ratio [32] was 6.4, the solubility [33] was > 1.5 mg/mL and the Activity (MCF7 [34]) was “Active”. The IC50 at 48 h [35] was 28.1 µM.

Reference: ChEMBL document CHEMBL6071200, “Discovery of Ring-Annulated Analogues of Cannabidiol as Potential Anticancer Agents: Synthesis and Biological Evaluation” (ACS Med Chem Lett, 2024)
